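Method: 48-hour compound exposure of cells in 96-well plates, five concentrations, linear interpolation of endpoints. At the GI50, growth is halved.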 Active and inactive are the calls of the source. Rule as the data show it: active = GI50 up to about 1.1 µM and inactive = higher.
Key:
Assay in all cases: NCI tumour cell line growth inhibition, 48 h
NCI/ADR-RES = tested on: NCI/ADR-RES
TK-10 = tested on: TK-10
OVCAR-5 = tested on: OVCAR-5
SF-539 = tested on: SF-539
SK-MEL-2 = tested on: SK-MEL-2
SR = tested on: SR
HT-29 = tested on: HT-29
MDA-MB-435 = tested on: MDA-MB-435
SK-OV-3 = tested on: SK-OV-3
CAKI-1 = tested on: CAKI-1
SNB-19 = tested on: SNB-19
MCF7 = tested on: MCF7
COLO 205 = tested on: COLO 205
LOX IMVI = tested on: LOX IMVI
T47D = tested on: T47D
SF-268 = tested on: SF-268
ACHN = tested on: ACHN
UO-31 = tested on: UO-31
SK-MEL-5 = tested on: SK-MEL-5
SF-295 = tested on: SF-295

Row | SMILES | GI50 (NCI/ADR-RES) | GI50 (TK-10) | GI50 (OVCAR-5) | GI50 (SF-539) | GI50 (SK-MEL-2) | GI50 (SR) | GI50 (HT-29) | GI50 (MDA-MB-435) | GI50 (SK-OV-3) | GI50 (CAKI-1) | GI50 (SNB-19) | GI50 (MCF7) | GI50 (COLO 205) | GI50 (LOX IMVI) | GI50 (T47D) | GI50 (SF-268) | GI50 (ACHN) | GI50 (UO-31) | GI50 (SK-MEL-5) | GI50 (SF-295)
1 | OC1COC(OCc2ccccc2)C(O)C1O (stereo not given) | > 100 µM (inactive) | > 100 µM (inactive) | > 100 µM (inactive) | > 100 µM (inactive) | > 100 µM (inactive) | > 100 µM (inactive) | > 100 µM (inactive) | > 100 µM (inactive) | > 100 µM (inactive) | > 100 µM (inactive) | > 100 µM (inactive) | > 100 µM (inactive) | > 100 µM (inactive) | > 100 µM (inactive) | > 100 µM (inactive) | > 100 µM (inactive) | > 100 µM (inactive) | > 100 µM (inactive) | > 100 µM (inactive) | > 100 µM (inactive)
2 | CC(C)(C)c1ccc(O)c(C[N+](C)(C)C)c1 | > 100 µM (inactive) | > 100 µM (inactive) | > 100 µM (inactive) | > 100 µM (inactive) | > 100 µM (inactive) | > 100 µM (inactive) | > 100 µM (inactive) | > 100 µM (inactive) | > 100 µM (inactive) | > 100 µM (inactive) | > 100 µM (inactive) | > 100 µM (inactive) | > 100 µM (inactive) | > 100 µM (inactive) | > 100 µM (inactive) | > 100 µM (inactive) | > 100 µM (inactive) | > 100 µM (inactive) | 49.4 µM (inactive) | > 100 µM (inactive)
3 | O=C(Nc1ccccc1C(=O)NCc1ccccc1)/C(=C/c1ccccc1)NC(=O)c1ccccc1 | 62.2 µM (inactive) | > 100 µM (inactive) | > 100 µM (inactive) | > 100 µM (inactive) | > 100 µM (inactive) | > 100 µM (inactive) | > 100 µM (inactive) | > 100 µM (inactive) | > 100 µM (inactive) | > 100 µM (inactive) | > 100 µM (inactive) | > 100 µM (inactive) | > 100 µM (inactive) | > 100 µM (inactive) | > 100 µM (inactive) | > 100 µM (inactive) | > 100 µM (inactive) | > 100 µM (inactive) | > 100 µM (inactive) | > 100 µM (inactive)
4 | CCOC(=O)[C@H](O)[C@@H](O)C(=O)NCc1ccc(C(=O)c2ccccc2)cc1 | > 100 µM (inactive) | > 100 µM (inactive) | > 100 µM (inactive) | > 100 µM (inactive) | > 100 µM (inactive) | > 100 µM (inactive) | > 100 µM (inactive) | > 100 µM (inactive) | > 100 µM (inactive) | > 100 µM (inactive) | > 100 µM (inactive) | > 100 µM (inactive) | > 100 µM (inactive) | > 100 µM (inactive) | > 100 µM (inactive) | > 100 µM (inactive) | > 100 µM (inactive) | > 100 µM (inactive) | > 100 µM (inactive) | > 100 µM (inactive)
5 | Cc1ccc2nc(N/N=C/c3ccc(C)s3)cc(C)c2c1 | 12.3 µM (inactive) | 8.97 µM (inactive) | 10.1 µM (inactive) | 11 µM (inactive) | 19 µM (inactive) | 19.7 µM (inactive) | 3.51 µM (inactive) | 7.31 µM (inactive) | 18.3 µM (inactive) | 17.1 µM (inactive) | 12.9 µM (inactive) | 6.79 µM (inactive) | 3.79 µM (inactive) | 4.53 µM (inactive) | 7.91 µM (inactive) | 11.6 µM (inactive) | 11.7 µM (inactive) | 9.82 µM (inactive) | 4.56 µM (inactive) | 7.94 µM (inactive)
6 | CCCCCCC(=O)OC[n+]1ccc(-c2c(COC(=O)NC(C)C)c(COC(=O)NC(C)C)c3n2CCC3)cc1 | > 100 µM (inactive) | > 100 µM (inactive) | > 100 µM (inactive) | 45.1 µM (inactive) | > 100 µM (inactive) | 10 µM (inactive) | > 100 µM (inactive) | > 100 µM (inactive) | > 100 µM (inactive) | 30.8 µM (inactive) | > 100 µM (inactive) | 45.8 µM (inactive) | > 80.9 µM (inactive) | 42.9 µM (inactive) | > 100 µM (inactive) | 48.6 µM (inactive) | 41 µM (inactive) | > 100 µM (inactive) | > 100 µM (inactive) | > 75.2 µM (inactive)
7 | COc1ccccc1C1C2=C(COC2=O)Oc2cc3c(cc21)OCO3 (stereo not given) | 2.31 µM (inactive) | 12.4 µM (inactive) | 11 µM (inactive) | 1.97 µM (inactive) | 5.15 µM (inactive) | 0.792 µM (active) | 1.65 µM (inactive) | 0.249 µM (active) | 3.46 µM (inactive) | 3.55 µM (inactive) | 3.19 µM (inactive) | 1.67 µM (inactive) | 1.78 µM (inactive) | 2.27 µM (inactive) | 2.32 µM (inactive) | 4.88 µM (inactive) | 14 µM (inactive) | 3.56 µM (inactive) | 1.93 µM (inactive) | 2.17 µM (inactive)

Reference: ChEMBL document CHEMBL1201862, “PubChem BioAssay data set” (2004)
